Calls of active or inactive are those of the source. No cut-off for these calls is given here.

For data set [1], the target named is T1, Amine oxidase [flavin-containing] B (Homo sapiens, UniProt P27338).
T1 sequence (P27338 whole entry): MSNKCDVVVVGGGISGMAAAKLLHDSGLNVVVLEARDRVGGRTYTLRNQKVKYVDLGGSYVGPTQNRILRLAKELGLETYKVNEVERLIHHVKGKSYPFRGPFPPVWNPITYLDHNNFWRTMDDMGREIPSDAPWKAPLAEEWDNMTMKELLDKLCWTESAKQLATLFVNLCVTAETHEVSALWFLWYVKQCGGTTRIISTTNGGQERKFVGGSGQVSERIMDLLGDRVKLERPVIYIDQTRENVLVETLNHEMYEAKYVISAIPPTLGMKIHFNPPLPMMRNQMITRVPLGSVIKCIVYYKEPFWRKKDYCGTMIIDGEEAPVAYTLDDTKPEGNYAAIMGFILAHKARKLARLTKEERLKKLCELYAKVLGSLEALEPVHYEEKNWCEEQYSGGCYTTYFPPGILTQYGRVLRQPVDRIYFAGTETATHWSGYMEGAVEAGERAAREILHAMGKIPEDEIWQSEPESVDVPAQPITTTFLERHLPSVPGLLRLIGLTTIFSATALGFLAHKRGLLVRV
Description: Inhibition of recombinant human MAO-B assessed as production of hydrogen peroxide from p-tyramine after 15 mins by Amplex Red assay

Data set [2] addresses T2, Acetylcholinesterase (Homo sapiens, UniProt P22303). In words: Inhibition of recombinant human AChE expressed in HEK293 cells using acetylthiocholine iodide as substrate at 100 uM preincubated for 5 mins before substrate addition measured after 10 mins by Ellman's method. Background: DTNB colorimetry detects thiols as they appear.
For data set [3], the target named is T3, Amine oxidase [flavin-containing] A (Homo sapiens, UniProt P21397).
T3 sequence (P21397 whole entry): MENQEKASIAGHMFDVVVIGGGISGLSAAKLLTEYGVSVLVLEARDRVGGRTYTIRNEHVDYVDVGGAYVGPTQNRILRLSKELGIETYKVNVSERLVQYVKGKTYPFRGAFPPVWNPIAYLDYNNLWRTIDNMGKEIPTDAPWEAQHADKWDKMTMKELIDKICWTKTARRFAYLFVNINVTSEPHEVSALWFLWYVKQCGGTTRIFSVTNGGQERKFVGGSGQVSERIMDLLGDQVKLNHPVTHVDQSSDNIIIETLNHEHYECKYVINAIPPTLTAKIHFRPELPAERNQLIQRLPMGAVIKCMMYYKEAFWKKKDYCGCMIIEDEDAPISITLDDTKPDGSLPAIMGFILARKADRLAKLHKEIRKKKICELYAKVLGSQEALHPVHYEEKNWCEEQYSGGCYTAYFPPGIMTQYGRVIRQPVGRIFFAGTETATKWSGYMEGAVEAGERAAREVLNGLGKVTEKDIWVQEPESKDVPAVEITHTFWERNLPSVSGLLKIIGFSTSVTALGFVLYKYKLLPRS
The data set is described as follows: Inhibition of recombinant human MAO-A assessed as production of hydrogen peroxide from p-tyramine up to 100 uM after 15 mins by Amplex Red assay. To be noted: 0.25 h.

The target of data set [4] is T2, Acetylcholinesterase. In words: Inhibition of recombinant human AChE expressed in HEK293 cells using acetylthiocholine iodide as substrate preincubated for 5 mins before substrate addition measured after 10 mins by Ellman's method.
Data set [5] concerns the target T1, Amine oxidase [flavin-containing] B. The data set is described as follows: Inhibition of recombinant human MAO-B assessed as production of hydrogen peroxide from p-tyramine up to 100 uM after 15 mins by Amplex Red assay. The note with it: 0.25 h.
Data set [6] deals with T3, Amine oxidase [flavin-containing] A. In words: Inhibition of recombinant human MAO-A assessed as production of hydrogen peroxide from p-tyramine after 15 mins by Amplex Red assay.
Data set [7] deals with T1, Amine oxidase [flavin-containing] B. The data set is described as follows: Inhibition of recombinant human MAO-B assessed as production of hydrogen peroxide from p-tyramine at 100 uM after 15 mins by Amplex Red assay. The note with it: 0.25 h.

T2 sequence (P22303 whole entry): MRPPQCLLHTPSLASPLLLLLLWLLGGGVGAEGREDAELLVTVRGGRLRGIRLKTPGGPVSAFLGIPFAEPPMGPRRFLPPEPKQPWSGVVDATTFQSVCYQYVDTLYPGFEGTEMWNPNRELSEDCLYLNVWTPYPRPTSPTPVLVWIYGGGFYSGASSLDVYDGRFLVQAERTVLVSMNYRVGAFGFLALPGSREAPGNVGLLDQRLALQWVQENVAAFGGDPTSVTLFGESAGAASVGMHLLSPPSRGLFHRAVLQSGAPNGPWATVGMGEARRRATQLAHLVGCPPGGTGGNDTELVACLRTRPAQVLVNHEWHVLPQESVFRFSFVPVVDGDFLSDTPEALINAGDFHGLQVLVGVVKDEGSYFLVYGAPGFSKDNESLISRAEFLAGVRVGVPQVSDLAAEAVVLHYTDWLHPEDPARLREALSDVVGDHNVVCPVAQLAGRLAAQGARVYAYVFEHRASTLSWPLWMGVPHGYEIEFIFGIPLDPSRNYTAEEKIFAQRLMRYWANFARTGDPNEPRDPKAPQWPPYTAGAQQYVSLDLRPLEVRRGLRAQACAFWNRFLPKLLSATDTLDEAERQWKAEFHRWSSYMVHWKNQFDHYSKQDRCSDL

For the molecule `COc1ccc(C(=O)Nc2cc3ccccc3oc2=O)cc1OC`, half-maximal inhibition in data set [1] (IC50) required 58.4 µM. Besides, the inhibition result at Acetylcholinesterase [2] was “inactive”. Moreover, the “inhibition (INH)” value in data set [3] is “Not Active”.
Consider `Cc1ccc(-c2cc3cc(C)ccc3oc2=O)cc1`, for which, at Acetylcholinesterase [2], the inhibition result was “inactive”. For the same molecule, in data set [3], the “inhibition (INH)” value is given as “Not Active”.
For `O=c1oc2ccccc2cc1-c1ccccc1`, in that order: “inactive” and “Not Active”.
For the molecule `O=C(Nc1cc2ccccc2oc1=O)C1CCCCC1`, the IC50 in data set [1] came to 50 µM. The inhibition result on Acetylcholinesterase [2] was “inactive”. For the same molecule, the “inhibition (INH)” value in data set [3] was “Not Active”.
On to `Cc1ccc2oc(=O)c(-c3ccccc3)cc2c1`, for which the inhibition entry on Acetylcholinesterase [2] is “inactive”. Besides, the “inhibition (INH)” value in data set [3] is recorded as “Not Active”.
As to `COc1cc(C(=O)Nc2cc3ccccc3oc2=O)cc(OC)c1OC`, in data set [1], the concentration for half-maximal inhibition (IC50) came to 72.6 µM. The inhibition result on Acetylcholinesterase [2] is “inactive”. In addition, the “inhibition (INH)” value in data set [3] is on record as “Not Active”.
For `Cc1ccc(C(=O)Nc2cc3ccccc3oc2=O)cc1`, the IC50 in data set [1] turned out to be 7.96 µM; on Acetylcholinesterase [4] it was 18.4 µM. Moreover, the “inhibition (INH)” value in data set [3] is on record as “Not Active”.
On to `O=C(CCl)Nc1cc2ccccc2oc1=O`, for which the inhibition result at Acetylcholinesterase [2] is “inactive”. Also, the “inhibition (INH)” value in data set [5] and in data set [3] was “Not Active” each time.
As to `O=C(Nc1cc2ccccc2oc1=O)c1ccc(Cl)cc1`, the 50% inhibitory concentration (IC50) in data set [1] was found to be 1.95 µM; on Acetylcholinesterase [4], 18.7 µM. In data set [3], the “inhibition (INH)” value is recorded as “Not Active”.
Take `O=C(CBr)Nc1cc2ccccc2oc1=O`: the inhibition entry on Acetylcholinesterase [2] was “inactive”. For the same molecule, the “inhibition (INH)” value in data set [5] and in data set [3] was “Not Active” in each case.
On to `COc1ccc(C(=O)Nc2cc3ccccc3oc2=O)cc1`, for which the half-maximal inhibitory concentration (IC50) in data set [1] was 30.5 µM; on Acetylcholinesterase [4], 69.5 µM. The “inhibition (INH)” value in data set [3] is “Not Active”.
Take `O=C(Nc1cc2ccccc2oc1=O)c1ccccc1`: half-maximal inhibition in data set [1] (IC50) required 0.76 µM. Besides, the inhibition entry on Acetylcholinesterase [2] was “inactive”. In data set [3], the “inhibition (INH)” value is on record as “Not Active”.
Turning to `Cc1ccc(C(=O)Nc2cc3cc(C)ccc3oc2=O)cc1`, the values for the IC50 (in data set [1]; on Acetylcholinesterase [4]; in data set [6]) were 0.17 µM, 41.4 µM and 46 µM, respectively.
`CC(=O)Nc1cc2ccccc2oc1=O`: the inhibition entry at Acetylcholinesterase [2] is “inactive”. For the same molecule, the inhibition at 100 µM in data set [7] turned out to be 40%. Also, in data set [6], the IC50 turned out to be 38.9 µM.
Turning to `O=C(Nc1cc2ccccc2oc1=O)c1ccc(Cl)c(Cl)c1`, the IC50 in data set [1] was 5.95 µM; at Acetylcholinesterase [4] it was 15 µM. For the same molecule, in data set [3], the “inhibition (INH)” value is “Not Active”.
`O=C(Nc1cc2ccccc2oc1=O)c1ccc([N+](=O)[O-])cc1`: the “inhibition (INH)” value in data set [5] and in data set [3] was “Not Active” in each case. At Acetylcholinesterase [4], the IC50 was found to be 12.9 µM.

A word on the IC50: it is the concentration needed to halve the response being measured. In general, inhibition refers to how much of the control response was suppressed.

The values are drawn from ChEMBL document CHEMBL3217547, “3-Substituted coumarins as dual inhibitors of AChE and MAO for the treatment of Alzheimer's disease” (Medchemcomm, 2012).
